Like-named read-outs stand apart in the source and are kept apart here.
Legend:
Format in all cases: cell-based
BaF3_DTC = experiment: Cell growth inhibition assay (CellTiter-Glo), BaF3_DTC; settings: 72 h; Table 6; BaF3_DTC cells, three days, CellTiter-Glo; read-out: BaF3_DTC GI50
Description: (§1) Cells were seeded in a 96-well plate (Corning 3610) with 90 μL of culture medium per well, and plates were incubated at 37° C. overnight. A 1,000× DMSO stock solution of the desired compound was prepared the following day. A compound dilution plate was prepared by diluting the stock solution 1:100 in the corresponding cell culture medium, 10 μL of the diluted compound solution was added to each 96-well plate well containing the seeded cells. […] The content of the wells was mixed by shaking continuously for 10 min, and luminescence was measured using Envision (PerkinElmer). The data were analyzed with GraphPad Prism 9 (see FIG. 50).
(§2) Table 6, Table 7, and Table 8 list the cell growth inhibition results, where Gls0 represents the compound concentration to cause 50% cell growth inhibition in comparison with DMSO.

A431 (EGFR_WT) = target: T1, A431 (EGFR_WT) (Homo sapiens, UniProt P00533); experiment: EGFR degradation assay (western blot), A431 cells; settings: compounds 24 h, western blot, read-out: A431 DC50
T1 construct: endogenous in cells; host or cells: A431, NCI-H2073, NCI-H292
Description: (§3) A431 (EGFR_WT), NCl-H2073 (EGFR_WT), NCl-H292 (EGFR_WT), BaF3_YVAM (Her2_A775insYVAM), BaF3_SVD (EGFR_D770insSVD), BaF3_ASV (EGFR_A776inASV), or BaF3_DTC (EGFR_Exon19del/T790M/C797S) cells were seeded in a 24-well plate at a density of 4×10^5 cells per well for EGFR WT cells and 8× cells per well for EGFR or Her2 mutant cells, and the plates were incubated overnight. The cells were treated with the desired compounds for 24 h. The culture medium was removed, and 100 μL of RIPA buffer (Beyotime, P0013B) containing 1% Protease Inhibitor Cocktail (Bimake, B14001), 1% Phosphatase Inhibitor Cocktail 2 (Sigma, P5726), and 1% Phosphatase Inhibitor Cocktail 3 (Sigma, P0044) were added to lyse the cells. Then, the cell lysates were transferred to 1.5 mL microcentrifuge tubes and centrifuged at 12,000 rpm and 4° C. for 30 min. The supernatants were transferred into new tubes, and the protein concentration was determined using the BCA protein quantification method. All samples were diluted to the same concentration using RIPA buffer, loading buffer was added, samples were denatured, and 15 μg of protein per lane was loaded onto a SurePAGE 4-20% Bis-Tris gel. Samples were separated via electrophoresis in MOPS running buffer at 180 V for 100 min. Then, proteins were transferred onto PVDF membranes using the MiniBlot™ Electrophoretic Transfer Cell Device (Beyotime, E6050). The membrane was blocked using block buffer (LI-COR 927-60001) to prevent non-specific binding. The membrane was incubated with primary antibodies (1:500 dilution, EGFR-CST4405, 1:2000 dilution, Tubulin-ABclonal #AC021) at 4° C. overnight. The membrane was washed three times with 1× TBST buffer for 15 min each. The membrane was incubated with secondary antibodies IRDye 680RD Goat anti-Rabbit IgG Secondary Antibody (1:2000 dilution, LI-COR 926-68071) and IRDye 800CW Goat anti-Mouse IgG Secondary Antibody (1:2000 dilution, LI-COR 926-32210). Finally, the membrane was washed again with 1× TBST buffer 3 times. Fluorescence was detected using the Odyssey CLx Imaging System, and the data were analyzed with Empiria Studio Software and GraphPad Prism 9. Table 4 and Table 5 list the degradation results, where the degradation potency is represented by DC50, the concentration of compounds to cause the degradation of 50% of the corresponding proteins. FIGS. 45-49 show western blots illustrating the EGFR degradative activity of exemplary Compound of the present disclosure and a comparator Compound A in different cell lines 24 h after administration. The Compound referred herein as Compound A is disclosed in WO 2022/171123 A1 (see, compound 133, page 46; published Aug. 18, 2022). WO 2022/171123 A1 discloses phosphine oxide derived molecules with EGFR degradation activity.

[1] = tested on: BaF3_DTC (EGFR_Exon19del/T790M/C797S); experiment: EGFR degradation assay (western blot), BaF3_DTC cells; settings: BaF3_DTC cells (EGFR_Exon19del/T790M/C797S), compounds 24 h, western blot; read-out: BaF3_DTC DC50
Description: as §3

A431 = experiment: Cell growth inhibition assay (CellTiter-Glo), A431; settings: Homo sapiens, A-431, 72 h, Table 6; A431 cells, three days, CellTiter-Glo; read-out: A431 GI50
Description: as §1, §2

[2] = target: T2, BaF3_ASV (EGFR_A776inASV) (Homo sapiens, UniProt P00533, DUP767-769); experiment: EGFR degradation assay (western blot), BaF3_ASV cells; settings: BaF3_ASV cells, compounds 24 h, western blot; read-out: BaF3_ASV DC50
T2 construct: expressed in transfected cells; host or cells: Ba/F3 (engineered)
Description: as §3

BaF3_ASV = experiment: Cell growth inhibition assay (CellTiter-Glo), BaF3_ASV; settings: 72 h
Description: as §1, §2

[3] = Table 6, BaF3_ASV cells, three days, CellTiter-Glo, read-out: BaF3_ASV GI50

T1 sequence (P00533 25-1210): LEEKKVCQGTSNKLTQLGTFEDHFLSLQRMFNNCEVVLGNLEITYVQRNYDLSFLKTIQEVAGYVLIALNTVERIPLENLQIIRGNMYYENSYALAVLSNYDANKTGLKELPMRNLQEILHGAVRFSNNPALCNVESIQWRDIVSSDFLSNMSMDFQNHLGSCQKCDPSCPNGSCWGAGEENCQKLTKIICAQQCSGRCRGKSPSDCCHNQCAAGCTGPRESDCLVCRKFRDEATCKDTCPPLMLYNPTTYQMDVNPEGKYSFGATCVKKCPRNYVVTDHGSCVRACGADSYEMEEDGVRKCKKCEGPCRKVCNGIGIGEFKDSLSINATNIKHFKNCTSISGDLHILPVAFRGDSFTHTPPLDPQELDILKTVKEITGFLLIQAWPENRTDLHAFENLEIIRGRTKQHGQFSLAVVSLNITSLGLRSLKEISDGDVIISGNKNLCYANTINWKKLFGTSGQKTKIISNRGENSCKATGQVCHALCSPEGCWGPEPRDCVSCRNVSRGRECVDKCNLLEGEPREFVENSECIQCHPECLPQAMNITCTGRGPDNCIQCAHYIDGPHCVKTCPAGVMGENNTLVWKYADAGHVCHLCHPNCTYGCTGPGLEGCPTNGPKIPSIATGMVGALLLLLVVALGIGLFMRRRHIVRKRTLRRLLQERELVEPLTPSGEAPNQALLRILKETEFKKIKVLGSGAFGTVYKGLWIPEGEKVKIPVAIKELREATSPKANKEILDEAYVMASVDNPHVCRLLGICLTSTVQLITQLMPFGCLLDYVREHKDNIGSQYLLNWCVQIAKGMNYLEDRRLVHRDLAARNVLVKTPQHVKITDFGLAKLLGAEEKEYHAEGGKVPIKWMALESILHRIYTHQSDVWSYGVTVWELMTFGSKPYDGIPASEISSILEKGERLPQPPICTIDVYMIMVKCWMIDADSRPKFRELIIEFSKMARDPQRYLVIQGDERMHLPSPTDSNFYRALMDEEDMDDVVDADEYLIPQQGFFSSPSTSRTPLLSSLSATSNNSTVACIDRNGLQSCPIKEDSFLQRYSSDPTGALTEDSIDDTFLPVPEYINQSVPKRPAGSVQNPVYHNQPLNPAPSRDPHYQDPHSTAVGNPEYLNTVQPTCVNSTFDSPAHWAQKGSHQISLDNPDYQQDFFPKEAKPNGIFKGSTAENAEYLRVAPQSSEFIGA
T2 sequence (P00533 with tags, fused parts or gaps DUP767-769): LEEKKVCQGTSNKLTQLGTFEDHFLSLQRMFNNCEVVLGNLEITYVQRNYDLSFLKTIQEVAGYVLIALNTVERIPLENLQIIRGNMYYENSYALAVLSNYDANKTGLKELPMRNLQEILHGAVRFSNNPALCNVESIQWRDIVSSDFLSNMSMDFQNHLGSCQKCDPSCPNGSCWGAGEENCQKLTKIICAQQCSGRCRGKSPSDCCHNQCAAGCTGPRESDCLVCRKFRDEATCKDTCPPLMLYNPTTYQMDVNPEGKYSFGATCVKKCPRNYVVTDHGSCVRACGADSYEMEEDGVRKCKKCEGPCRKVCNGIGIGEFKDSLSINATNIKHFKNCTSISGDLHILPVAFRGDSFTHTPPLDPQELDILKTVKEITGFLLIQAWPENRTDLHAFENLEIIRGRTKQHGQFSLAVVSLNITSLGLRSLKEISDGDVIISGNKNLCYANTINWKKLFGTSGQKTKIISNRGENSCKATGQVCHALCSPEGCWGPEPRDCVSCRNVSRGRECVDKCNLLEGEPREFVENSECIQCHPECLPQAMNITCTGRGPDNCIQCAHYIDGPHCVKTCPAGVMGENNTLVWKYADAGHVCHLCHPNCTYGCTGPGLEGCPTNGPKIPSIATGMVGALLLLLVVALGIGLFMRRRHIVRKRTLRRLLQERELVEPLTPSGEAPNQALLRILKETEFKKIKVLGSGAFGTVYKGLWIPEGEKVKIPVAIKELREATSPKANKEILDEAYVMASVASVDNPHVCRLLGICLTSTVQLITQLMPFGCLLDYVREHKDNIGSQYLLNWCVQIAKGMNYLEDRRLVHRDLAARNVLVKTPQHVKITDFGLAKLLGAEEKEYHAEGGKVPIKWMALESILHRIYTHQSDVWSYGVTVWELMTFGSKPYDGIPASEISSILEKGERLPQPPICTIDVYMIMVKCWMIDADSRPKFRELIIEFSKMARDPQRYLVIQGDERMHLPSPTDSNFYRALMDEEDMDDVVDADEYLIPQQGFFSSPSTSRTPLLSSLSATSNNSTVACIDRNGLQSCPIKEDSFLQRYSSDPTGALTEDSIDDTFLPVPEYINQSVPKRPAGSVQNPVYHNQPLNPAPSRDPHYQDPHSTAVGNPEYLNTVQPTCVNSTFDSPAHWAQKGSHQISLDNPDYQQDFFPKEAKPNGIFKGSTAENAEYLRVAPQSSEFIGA

Structure (SMILES)	GI50 (BaF3_DTC) [nM]	DC50 (A431 (EGFR_WT)) [nM]	DC50 [1] [nM]	GI50 (A431) [nM]	DC50 [2] [nM]	GI50 (BaF3_ASV; [3]) [nM]	GI50 (BaF3_ASV; read-out: BaF3_ASV GI50 (nM)) [nM]
CCc1cc(Nc2ncc(Br)c(Nc3ccc4nccnc4c3NS(C)(=O)=O)n2)c(OC)cc1N1CCC(N2CCN(CC3CCN(c4ccc5c(c4)CN(C4CCC(=O)NC4=O)C5=O)CC3)CC2)CC1 (stereo not drawn) [Compound 7, N-(6-((5-bromo-2-((4-(4-(4-((1-(2-(2,6-dioxopiperidin-3-yl)-1-oxoisoindolin-5-yl)piperidin-4-yl)methyl)piperazin-1-yl)piperidin-1-yl)-5-ethyl-2-methoxyphenyl)amino)pyrimidin-4~yl)amino)quinoxalin-5-yl)methanesulfonamide]	2.84	> 1000	2.43	> 1000	16.6	41.9	
CCc1cc(Nc2ncc(Br)c(Nc3ccc4nccnc4c3NS(C)(=O)=O)n2)c(OC)cc1N1CCC(N2CCN(CCc3cccc4c3oc(=O)n4C3CCC(=O)NC3=O)CC2)CC1 (stereo not drawn) [Compound 77, N-(6-((5-bromo-2-((4-(4-(4-(2-(3-(2,6-dioxopiperidin-3-yl)-2-oxo-2,3-dihydrobenzo[d]oxazol-7-yl)ethyl)piperazin-1-yl)piperidin-1-yl)-5-ethyl-2-methoxyphenyl)amino)pyrimidin-4-yl)amino)quinoxalin-5-yl)methanesulfonamide]	5.39	> 1000	2.7	> 3000	> 1000		131
CCc1cc(Nc2ncc(Br)c(Nc3ccc4nccnc4c3NS(C)(=O)=O)n2)c(OC)cc1N1CCC(N2CCN(CCc3cc(F)c(C4CCC(=O)NC4=O)c(F)c3)CC2)CC1 (stereo not drawn) [Compound 71, N-(6-((5-bromo-2-((4-(4-(4-(4-(2,6-dioxopiperidin-3-yl)-3,5~difluorophenethyl)piperazin-1-yl)piperidin-1-yl)-5-ethyl-2-methoxyphenyl)amino)pyrimidin-4-yl)amino)quinoxalin-5-yl)methanesulfonamide]	5.41	> 1000	3.51	> 3000	55.1	131	
CCc1cc(Nc2ncc(Br)c(Nc3ccc4nccnc4c3NS(C)(=O)=O)n2)c(OC)cc1N1CCC(N2CCC(C(=O)N3CCN(c4ccc5c(c4)CN([C@H]4CCC(=O)NC4=O)C5=O)CC3)CC2)CC1 [Compound 41, (S)-N-(6-((5-bromo-2-((4-(4-(4-(2-(2,6-dioxopiperidin-3-yl)-1-oxoisoindolin-5-yl)piperazine-1-carbonyl)-[1,4′-bipiperidin]-1′-yl)-5-ethyl-2-methoxyphenyl)amino)pyrimidin-4-yl)amino)quinoxalin-5-yl)methanesulfonamide]	123	> 1000	> 100	> 1000	335	52.7	
CCc1cc(Nc2ncc(Br)c(Nc3ccc4nccnc4c3NS(C)(=O)=O)n2)c(OC)cc1N1CCC(N2CCN(CCc3cccc4c3CN(C3CCC(=O)NC3=O)C4=O)CC2)CC1 (stereo not drawn) [Compound 9, N-(6-((5-bromo-2-((4-(4-(4-(2-(2-(2,6-dioxopiperidin-3-yl)-1-oxoisoindolin-4-yl)ethyl)piperazin-1-yl)piperidin-1-yl)-5-ethyl-2-methoxyphenyl)amino)pyrimidin-4-yl)amino)quinoxalin-5-yl)methanesulfonamide]	14.7	> 1000	8.05	> 1000	251	563	
CCc1cc(Nc2ncc(Br)c(Nc3ccc4nccnc4c3NS(C)(=O)=O)n2)c(OC)cc1N1CCC(N2CCN(CC3CCN(c4ccc5c(c4)C(=O)N(C4CCC(=O)NC4=O)C5=O)CC3)CC2)CC1 (stereo not drawn) [Compound 6, N-(6-((5-bromo-2-((4-(4-(4-((1-(2-(2,6-dioxopiperidin-3-yl)-1,3-dioxoisoindolin-5-yl)piperidin-4-yl)methyl)piperazin-1-yl)piperidin-1-yl)-5-ethyl-2-methoxyphenyl)amino)pyrimidin-4-yl)amino)quinoxalin-5-yl)methanesulfonamide]	11.2	> 1000	5.94	> 1000	289	282	
CCc1cc(Nc2ncc(Br)c(Nc3ccc4nccnc4c3NS(C)(=O)=O)n2)c(OC)cc1N1CCC(N2CCN(C3CC4(CCN(c5ccc6c(c5)CN(C5CCC(=O)NC5=O)C6=O)CC4)C3)CC2)CC1 (stereo not drawn) [Compound 48, N-(6-((5-bromo-2-((4-(4-(4-(7-(2-(2,6-dioxopiperidin-3-yl)-1-oxoisoindolin-5-yl)-7-azaspiro[3.5]nonan-2-yl)piperazin-1-yl)piperidin-1-yl)-5-ethyl-2-methoxyphenyl)amino)pyrimidin-4-yl)amino)quinoxalin-5-yl)methanesulfonamide]	6.04	> 1000	4.26	> 1000	23.7	36.8	
CCc1cc(Nc2ncc(Br)c(Nc3ccc4nccnc4c3NS(C)(=O)=O)n2)c(OC)cc1N1CCC(N2CCN(CCc3cccc4c3C(=O)N(C3CCC(=O)NC3=O)C4)CC2)CC1 (stereo not drawn) [Compound 8, N-(6-((5-bromo-2-((4-(4-(4-(2-(2-(2,6-dioxopiperidin-3-yl)-3-oxoisoindolin-4-yl)ethyl)piperazin-1-yl)piperidin-1-yl)-5-ethyl-2-methoxyphenyl)amino)pyrimidin-4-yl)amino)quinoxalin-5-yl)methanesulfonamide]	24.7	> 1000	23.3	> 1000	> 1000	858	
CCc1cc(Nc2ncc(Br)c(Nc3ccc4nccnc4c3NS(C)(=O)=O)n2)c(OC)cc1N1CCC(N2CC[C@@H](CN3CCN(c4ccc5c(c4)CN([C@H]4CCC(=O)NC4=O)C5=O)CC3)C2)CC1 [Compound 92]	14.6	> 1000	3.97	> 1000	24.5	92.9	
CCc1cc(Nc2ncc(Br)c(Nc3ccc4nccnc4c3NS(C)(=O)=O)n2)c(OC)cc1N1CCC(N2CCN(c3ccc4c(c3)CN([C@H]3CCC(=O)NC3=O)C4=O)CC2)CC1 [Compound 38, (S)-N-(6-((5-bromo-2-((4-(4-(4-(2-(2,6-dioxopiperidin-3-yl)-1-oxoisoindolin-5-yl)piperazin-1-yl)piperidin-1-yl)-5-ethyl-2-methoxyphenyl)amino)pyrimidin-4-yl)amino)quinoxalin-5~yl)methanesulfonamide]	9.14	> 1000	4.2	> 1000	35.1	90.3	

Reference: patent US20250002473A1, “QUINOXALINE DERIVED SULFONAMIDES WITH EGFR DEGRADATION ACTIVITIES AND THEIR USES THEREOF” (Accutar Biotechnology Inc., priority 2023, published 2025)
